According to patent US8034940B2, “Modulators of glucocorticoid receptor, AP-1, and/or NF-κB activity and use thereof” (Bristol-Myers Squibb Company, priority 2006, dated 2011):

Tests used:
[1] = target: T1, human full-length glucocorticoid receptor (Homo sapiens, UniProt P04150); assay: Glucocorticoid Receptor Binding Assay (II), fluorescence polarization, FITC-dexamethasone; set-up: recombinantly expressed human full-length glucocorticoid receptor; purchased PanVera Co., Madison P2816; details: GR Binding Assay (II); read-out: GR (Ki, nM) (GR Binding Assay (II))
T1 sequence (P04150 1-777): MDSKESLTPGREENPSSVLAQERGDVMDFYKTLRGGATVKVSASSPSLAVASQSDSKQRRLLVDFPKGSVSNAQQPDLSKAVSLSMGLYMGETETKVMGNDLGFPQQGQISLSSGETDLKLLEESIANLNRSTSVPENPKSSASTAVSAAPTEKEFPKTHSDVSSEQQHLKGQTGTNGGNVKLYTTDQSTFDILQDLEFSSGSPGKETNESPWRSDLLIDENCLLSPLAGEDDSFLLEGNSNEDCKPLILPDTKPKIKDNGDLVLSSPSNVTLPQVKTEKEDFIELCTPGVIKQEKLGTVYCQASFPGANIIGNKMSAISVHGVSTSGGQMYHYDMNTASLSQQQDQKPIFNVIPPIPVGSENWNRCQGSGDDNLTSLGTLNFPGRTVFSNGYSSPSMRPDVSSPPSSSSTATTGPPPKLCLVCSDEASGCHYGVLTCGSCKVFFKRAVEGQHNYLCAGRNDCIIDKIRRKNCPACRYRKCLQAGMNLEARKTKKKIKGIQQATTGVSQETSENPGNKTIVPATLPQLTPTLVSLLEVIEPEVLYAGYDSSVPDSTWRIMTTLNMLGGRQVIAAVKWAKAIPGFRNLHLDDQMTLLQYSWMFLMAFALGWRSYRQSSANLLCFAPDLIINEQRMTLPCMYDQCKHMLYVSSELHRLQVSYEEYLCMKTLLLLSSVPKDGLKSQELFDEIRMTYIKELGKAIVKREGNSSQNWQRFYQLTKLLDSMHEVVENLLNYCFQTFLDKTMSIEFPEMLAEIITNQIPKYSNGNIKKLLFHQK
Description: Glucocorticoid Receptor Binding Assay (II)^b
In order to measure the binding of compounds on the glucocorticoid receptor a commercially available kit was used (Glucocorticoid receptor competitor assay kit, PanVera Co., Madison, W1, P2816). Briefly, a cell lysate containing recombinantly expressed human full-length glucocorticoid receptor was mixed with a fluorescently labeled glucocorticoid (4 nM FITC-dexamethasone) plus or minus test molecule. After one hour at room temperature, the fluorescence polarization (FP) of the samples were measured. […] Test molecules were analyzed in the concentration range from 0.1 nM to 40 μM.

[2] = target: T1, human full-length glucocorticoid receptor; assay: Glucocorticoid Receptor Binding Assay (I), fluorescence polarization, Fluormone GS Red; set-up: purified human recombinant full-length glucocorticoid receptor; purchased Invitrogen Part #2893; details: GR Binding Assay (I); read-out: GR (Ki, nM) (GR Binding Assay (I))
Description: Glucocorticoid Receptor Binding Assay (I)^a
Briefly, purified human recombinant full-length glucocorticoid receptor (2 nM) was mixed with fluorescently labeled glucocorticoid (1 nM Fluormone GS Red) in the presence or absence of test compound. After two hour incubation at room temperature in the dark, the fluorescence polarization (FP) of the samples was measured. […] Test compounds were analyzed in the concentration range from 8.5E-05 μM to 5 μM.

[3] = system: AP-1 induced transcriptional activity; assay: Cellular Transrepressional Assay (AP-1 luciferase reporter, PMA-activated A549 cells); assay type: cell-based; details: Homo sapiens, A549, 7 h, maximum inhibition, Cellular Transrepression Assay; read-out: AP-1 Max % inh (Cellular Transrepression Assay)
Procedure, shortened: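 A549 cells stably carrying a 7× AP-1–luciferase reporter were stimulated with 10 ng/ml PMA with or without compound (0.1 nM–40 μM) for 7 h. Luminescence read 10 min after luciferase reagent; EC50 fitted from % decrease versus PMA-only signal.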

Row | Structure (SMILES) | Ki [1] [nM] | Ki [2] [nM] | Emax [3] [%]
1 | COc1ccc(CNc2ccc3c(n2)Oc2ccccc2[C@H]3C(C)(C)C(=O)Nc2nncs2)cc1 (racemic) [Example 136] | 141 | – | –
2 | CC(C)(C(=O)Nc1nccs1)C1c2ccccc2Sc2ccccc21 [Example 9] | 154 | – | –
3 | CC(C)(C(=O)Nc1nccs1)C1c2ccccc2-c2ccc(O)cc21 (centres unmarked) [Example 22] | 1640 | – | –
4 | CCOC(=O)c1csc(NC(=O)C(C)(C)C2c3ccccc3CCc3ccccc32)n1 [Example 23] | 445 | – | –
5 | CC(C)(C(=O)Nc1nccs1)C1c2ccccc2CCc2ccccc21 [Example 25] | 41.1 | – | –
6 | CC(C)(C(=O)Nc1nc(Cc2ccccc2)cs1)C1c2ccccc2Oc2ccccc21 [Example 36] | 1040 | – | –
7 | CC(C)(C(=O)Nc1nccs1)C1c2ccccc2Oc2ccccc21 [Example 37] | 1.4 | – | –
8 | CC(C)(C(=O)Nc1nncs1)C1c2ccccc2Oc2ccccc21 [Example 39] | 39.7 | – | –
9 | CCOC(=O)c1csc(NC(=O)C(C)(C)C2c3ccccc3Oc3cc(OC)ccc32)n1 (centres unmarked) [Example 48] | 60.9 | – | –
10 | COc1ccc2c(c1)Oc1ccccc1[C@H]2C(C)(C)C(=O)Nc1nccs1 [Example 56] | 233 | – | –
11 | COc1ccc2c(c1)Oc1ccccc1[C@@H]2C(C)(C)C(=O)Nc1nccs1 [Example 60] | 35.7 | – | –
12 | COc1ccc2c(c1)Oc1ccccc1[C@@H]2C(C)(C)C(=O)Nc1ncc[nH]1 [Example 61] | 909 | – | –
13 | COc1ccc2c(c1)Oc1ccccc1[C@@H]2C(C)(C)C(=O)Nc1nncs1 [Example 62] | 58 | – | –
14 | CC(C)(C(=O)Nc1ncns1)C1c2ccccc2Oc2ncccc21 (centres unmarked) [Example 66] | 665 | – | –
15 | CC(C)(C(=O)Nc1nccs1)C1c2ccccc2Oc2ncccc21 (centres unmarked) [Example 67] | 107 | – | –
16 | CCOC(=O)c1csc(NC(=O)C(C)(C)C2c3ccccc3Oc3ncccc32)n1 (centres unmarked) [Example 68] | 820 | – | –
17 | Cc1cnc(NC(=O)C(C)(C)C2c3ccccc3Oc3ncccc32)s1 (centres unmarked) [Example 69] | 515 | – | –
18 | Cc1csc(NC(=O)C(C)(C)C2c3ccccc3Oc3ncccc32)n1 (centres unmarked) [Example 70] | 762 | – | –
19 | Cc1nnc(NC(=O)C(C)(C)C2c3ccccc3Oc3ncccc32)s1 (centres unmarked) [Example 71] | 517 | – | –
20 | CC(C)(C(=O)Nc1nccs1)C1c2ccccc2Oc2nc(Cl)ccc21 (centres unmarked) [Example 75] | 29 | – | –
21 | CC(C)(C(=O)Nc1nncs1)C1c2ccccc2Oc2nc(Cl)ccc21 (centres unmarked) [Example 76] | 76.4 | – | –
22 | CC(C)(C(=O)Nc1nccs1)C1c2ccccc2Oc2c(O)cccc21 (centres unmarked) [Example 81] | 243 | – | –
23 | COc1cccc2c1Oc1ccccc1C2C(C)(C)C(=O)Nc1nccs1 (centres unmarked) [Example 84] | 104 | – | –
24 | Cc1nc(NC(=O)C(C)(C)[C@H]2c3ccccc3Oc3cc(O)ccc32)sc1C [Example 86] | 32.9 | – | –
25 | CC(C)CCN(C)C(=O)c1ccc(-c2ccc3c(n2)Oc2ccccc2[C@@H]3C(C)(C)C(=O)Nc2nncs2)cc1 [Example 270] | – | 20.9 | 28
26 | CC1CN(C(=O)c2ccc(-c3ccc4c(n3)Oc3ccccc3[C@@H]4C(C)(C)C(=O)Nc3nncs3)cc2)CC(C)O1 (some centres unmarked) [Example 273] | – | 19.9 | 21

Row | Structure (SMILES) | Ki [1] [nM] | Ki [2] [nM] | Emax [3] [%]
27 | CC(C)(C(=O)Nc1nncs1)[C@H]1c2ccccc2Oc2nc(-c3ccc(C(=O)N4CCN(CCO)CC4)cc3)ccc21 [Example 275] | – | 2.6 | 26
28 | CN(CCc1ccccc1)C(=O)c1ccc(-c2ccc3c(n2)Oc2ccccc2[C@@H]3C(C)(C)C(=O)Nc2nncs2)cc1 [Example 276] | – | 4.05 | 27.2
29 | CC(=O)N1CCCN(C(=O)c2ccc(-c3ccc4c(n3)Oc3ccccc3[C@@H]4C(C)(C)C(=O)Nc3nncs3)cc2)CC1 [Example 277] | – | 81.3 | 24.5
30 | CC(C)(C(=O)Nc1nncs1)[C@H]1c2ccccc2Oc2nc(-c3ccc(C(=O)N4CCc5ccccc5C4)cc3)ccc21 [Example 280] | – | 10.8 | 33.5
31 | CCS(=O)(=O)N1CCN(C(=O)c2ccc(-c3ccc4c(n3)Oc3ccccc3[C@@H]4C(C)(C)C(=O)Nc3nncs3)cc2)CC1 [Example 283] | – | 9.21 | 24.6
32 | COC[C@H]1CCCN1C(=O)c1ccc(-c2ccc3c(n2)Oc2ccccc2[C@@H]3C(C)(C)C(=O)Nc2nncs2)cc1 [Example 285] | – | 5.84 | 45.3
33 | CN(CCS(C)(=O)=O)C(=O)c1ccc(-c2ccc3c(n2)Oc2ccccc2[C@@H]3C(C)(C)C(=O)Nc2nncs2)cc1 [Example 286] | – | 12.2 | 49.8
34 | CC(C)(C(=O)Nc1nncs1)[C@H]1c2ccccc2Oc2nc(-c3ccc(C(=O)N4CCC(S(C)(=O)=O)C4)cc3)ccc21 (some centres unmarked) [Example 288] | – | 13.8 | 35.5
35 | COC1CN(C(=O)c2ccc(-c3ccc4c(n3)Oc3ccccc3[C@@H]4C(C)(C)C(=O)Nc3nncs3)cc2)C1 [Example 289] | – | 20 | 24.3
36 | CC(C)(C(=O)Nc1nncs1)[C@H]1c2ccccc2Oc2nc(-c3ccc(C(=O)N4CCC(C(F)(F)F)CC4)cc3)ccc21 [Example 290] | – | 20.4 | 28.8
37 | COC(=O)[C@H]1CCCCN1C(=O)c1ccc(-c2ccc3c(n2)Oc2ccccc2[C@@H]3C(C)(C)C(=O)Nc2nncs2)cc1 [Example 291] | – | 44 | 27
38 | COC(=O)CN(C)C(=O)c1ccc(-c2ccc3c(n2)Oc2ccccc2[C@@H]3C(C)(C)C(=O)Nc2nncs2)cc1 [Example 293] | – | 10.4 | 25.4
39 | CN(CCO)C(=O)c1ccc(-c2ccc3c(n2)Oc2ccccc2[C@@H]3C(C)(C)C(=O)Nc2nncs2)cc1 [Example 294] | – | 29.3 | 59.4
40 | COCCN(C)C(=O)c1ccc(-c2ccc3c(n2)Oc2ccccc2[C@@H]3C(C)(C)C(=O)Nc2nncs2)cc1 [Example 295] | – | 38.7 | 24.4
41 | CC(C)(C(=O)Nc1nncs1)[C@H]1c2ccccc2Oc2nc(-c3ccc(C(=O)N4CCCN(Cc5ccccc5)CC4)cc3)ccc21 [Example 298] | – | 242 | 25.4
42 | CN(Cc1ccncc1)C(=O)c1ccc(-c2ccc3c(n2)Oc2ccccc2[C@@H]3C(C)(C)C(=O)Nc2nncs2)cc1 [Example 301] | – | 20.3 | 28.6
43 | CC(C)(C(=O)Nc1nncs1)[C@H]1c2ccccc2Oc2nc(-c3ccc(C(=O)N4CCCN(CCO)CC4)cc3)ccc21 [Example 303] | – | 278 | 28.6
44 | CC1CC(C)CN(C(=O)c2ccc(-c3ccc4c(n3)Oc3ccccc3[C@@H]4C(C)(C)C(=O)Nc3nncs3)cc2)C1 (some centres unmarked) [Example 305] | – | 24.7 | 38.3
45 | CC(=O)N[C@@H]1CCN(C(=O)c2ccc(-c3ccc4c(n3)Oc3ccccc3[C@@H]4C(C)(C)C(=O)Nc3nncs3)cc2)C1 [Example 306] | – | 9.85 | 43.5
46 | CN(C)[C@@H]1CCN(C(=O)c2ccc(-c3ccc4c(n3)Oc3ccccc3[C@@H]4C(C)(C)C(=O)Nc3nncs3)cc2)C1 [Example 307] | – | 67.5 | 37.1
47 | CC(C)(C(=O)Nc1nncs1)[C@H]1c2ccccc2Oc2nc(-c3ccc(C(=O)NCc4ccccc4)cc3)ccc21 [Example 349] | – | 5.88 | 31.7
48 | CC(C)(C(=O)Nc1nncs1)[C@H]1c2ccccc2Oc2nc(-c3ccc(C(=O)NCCc4ccccc4)cc3)ccc21 [Example 354] | – | 20.1 | 28.9
49 | CC(C)(C(=O)Nc1nncs1)[C@H]1c2ccccc2Oc2nc(-c3ccc(C(=O)NCCO)cc3)ccc21 [Example 357] | – | 31.4 | 29.6
50 | CN(C)C(=O)c1ccc(-c2ccc3c(c2)Oc2ncccc2C3C(C)(C)C(=O)Nc2nncs2)cc1 (centres unmarked) [Example 490] | – | 14.8 | –
51 | CN(C)C(=O)c1ccc(-c2ccc3c(n2)Oc2ccccc2C3CC(=O)Nc2nncs2)cc1 (centres unmarked) [Example 491] | – | > 1150 | –
52 | Cc1nnc(NC(=O)C(C)(C)C2c3ccccc3Oc3cc(-c4ccc(C(=O)N5CCOCC5)cc4)ncc32)s1 (centres unmarked) [Example 493] | – | 109 | –
